{
  "source": "the supplement of paper PMC10307832",
  "experiment_in_all_cases": "relative viability (nuclei count vs DMSO), 5 days (fraction); higher = more cells survive",
  "key": {"KN-93 + Bortezomib": {"compound": "CN(C/C=C/C1=CC=C(C=C1)Cl)CC2=CC=CC=C2N(CCO)S(=O)(=O)C3=CC=C(C=C3)OC [KN-93] + CC(C)C[C@H](NC(=O)[C@H](Cc1ccccc1)NC(=O)c1cnccn1)B(O)O [Bortezomib] (partner 0.002 µM)", "procedure,_shortened": "(§1)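 After 5 days of treatment, lung cancer cells in 1536-well plates were fixed and stained in a single step (final 0.05% Triton X-100, 1% formaldehyde, 1 ug/ml Hoechst) and their nuclei counted on 4× images. Treatment had been applied by pin tool the day after seeding as one drug alone or as a fixed anchor-drug dose with five library-drug doses (not always all listed) in √10 steps. Relative viability is the nuclei count of treated wells divided by that of vehicle wells, and values are medians of duplicate plates.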"}, "KN-93 + Phenformin": {"compound": "CN(C/C=C/C1=CC=C(C=C1)Cl)CC2=CC=CC=C2N(CCO)S(=O)(=O)C3=CC=C(C=C3)OC [KN-93] + N=C(N)NC(=N)NCCc1ccccc1 [Phenformin] (partner 250 µM)", "procedure,_shortened": "as §1"}, "KN-93 + Pemetrexed": {"compound": "CN(C/C=C/C1=CC=C(C=C1)Cl)CC2=CC=CC=C2N(CCO)S(=O)(=O)C3=CC=C(C=C3)OC [KN-93] + Nc1nc2[nH]cc(CCc3ccc(C(=O)N[C@@H](CCC(=O)O)C(=O)O)cc3)c2c(=O)[nH]1 [Pemetrexed] (partner 0.2 µM)", "procedure,_shortened": "as §1"}, "KN-93 + Linsitinib": {"compound": "CN(C/C=C/C1=CC=C(C=C1)Cl)CC2=CC=CC=C2N(CCO)S(=O)(=O)C3=CC=C(C=C3)OC [KN-93] + C[C@]1(O)C[C@@H](c2nc(-c3ccc4ccc(-c5ccccc5)nc4c3)c3c(N)nccn32)C1 [Linsitinib] (partner 1 µM)", "procedure,_shortened": "as §1"}, "KN-93 + Tozasertib": {"compound": "CN(C/C=C/C1=CC=C(C=C1)Cl)CC2=CC=CC=C2N(CCO)S(=O)(=O)C3=CC=C(C=C3)OC [KN-93] + Cc1cc(Nc2cc(N3CCN(C)CC3)nc(Sc3ccc(NC(=O)C4CC4)cc3)n2)n[nH]1 [Tozasertib] (partner 0.1 µM)", "procedure,_shortened": "as §1"}},
  "data": [
    {"cell line": "NCI-H460", "values": [
      {"measurement": "relative viability", "setting": "KN-93 + Bortezomib; first compound 0.08 µM", "value": 0.813},
      {"measurement": "relative viability", "setting": "KN-93 + Bortezomib; first compound 0.253 µM", "value": 1.93},
      {"measurement": "relative viability", "setting": "KN-93 + Bortezomib; first compound 8 µM", "value": 0.717},
      {"measurement": "relative viability", "setting": "KN-93 + Phenformin; first compound 0.08 µM", "value": 0.299},
      {"measurement": "relative viability", "setting": "KN-93 + Phenformin; first compound 0.253 µM", "value": 0.565},
      {"measurement": "relative viability", "setting": "KN-93 + Phenformin; first compound 2.53 µM", "value": 0.552},
      {"measurement": "relative viability", "setting": "KN-93 + Phenformin; first compound 8 µM", "value": 0.396},
      {"measurement": "relative viability", "setting": "KN-93 + Pemetrexed; first compound 0.08 µM", "value": 0.0661},
      {"measurement": "relative viability", "setting": "KN-93 + Pemetrexed; first compound 0.253 µM", "value": 0.0588},
      {"measurement": "relative viability", "setting": "KN-93 + Pemetrexed; first compound 2.53 µM", "value": 0.0591},
      {"measurement": "relative viability", "setting": "KN-93 + Pemetrexed; first compound 8 µM", "value": 0.0687},
      {"measurement": "relative viability", "setting": "KN-93 + Linsitinib; first compound 0.08 µM", "value": 0.466},
      {"measurement": "relative viability", "setting": "KN-93 + Linsitinib; first compound 0.253 µM", "value": 1.14},
      {"measurement": "relative viability", "setting": "KN-93 + Linsitinib; first compound 2.53 µM", "value": 0.805},
      {"measurement": "relative viability", "setting": "KN-93 + Linsitinib; first compound 8 µM", "value": 0.375},
      {"measurement": "relative viability", "setting": "KN-93 + Tozasertib; first compound 0.08 µM", "value": 0.397},
      {"measurement": "relative viability", "setting": "KN-93 + Tozasertib; first compound 0.253 µM", "value": 0.104},
      {"measurement": "relative viability", "setting": "KN-93 + Tozasertib; first compound 2.53 µM", "value": 0.381},
      {"measurement": "relative viability", "setting": "KN-93 + Tozasertib; first compound 8 µM", "value": 0.153}
    ]},
    {"cell line": "NCI-H1355", "values": [
      {"measurement": "relative viability", "setting": "KN-93 + Bortezomib; first compound 0.08 µM", "value": 1.11},
      {"measurement": "relative viability", "setting": "KN-93 + Bortezomib; first compound 0.253 µM", "value": 1.11},
      {"measurement": "relative viability", "setting": "KN-93 + Bortezomib; first compound 2.53 µM", "value": 1.3},
      {"measurement": "relative viability", "setting": "KN-93 + Bortezomib; first compound 8 µM", "value": 0.895},
      {"measurement": "relative viability", "setting": "KN-93 + Phenformin; first compound 0.08 µM", "value": 0.497},
      {"measurement": "relative viability", "setting": "KN-93 + Phenformin; first compound 0.253 µM", "value": 0.456},
      {"measurement": "relative viability", "setting": "KN-93 + Phenformin; first compound 2.53 µM", "value": 0.438},
      {"measurement": "relative viability", "setting": "KN-93 + Phenformin; first compound 8 µM", "value": 0.427},
      {"measurement": "relative viability", "setting": "KN-93 + Pemetrexed; first compound 0.08 µM", "value": 1.11},
      {"measurement": "relative viability", "setting": "KN-93 + Pemetrexed; first compound 0.253 µM", "value": 0.918},
      {"measurement": "relative viability", "setting": "KN-93 + Pemetrexed; first compound 2.53 µM", "value": 1.27},
      {"measurement": "relative viability", "setting": "KN-93 + Pemetrexed; first compound 8 µM", "value": 0.972},
      {"measurement": "relative viability", "setting": "KN-93 + Linsitinib; first compound 0.08 µM", "value": 0.732},
      {"measurement": "relative viability", "setting": "KN-93 + Linsitinib; first compound 0.253 µM", "value": 0.769},
      {"measurement": "relative viability", "setting": "KN-93 + Linsitinib; first compound 2.53 µM", "value": 0.805},
      {"measurement": "relative viability", "setting": "KN-93 + Linsitinib; first compound 8 µM", "value": 0.699},
      {"measurement": "relative viability", "setting": "KN-93 + Tozasertib; first compound 0.08 µM", "value": 0.51},
      {"measurement": "relative viability", "setting": "KN-93 + Tozasertib; first compound 0.253 µM", "value": 0.451},
      {"measurement": "relative viability", "setting": "KN-93 + Tozasertib; first compound 2.53 µM", "value": 0.481},
      {"measurement": "relative viability", "setting": "KN-93 + Tozasertib; first compound 8 µM", "value": 0.31}
    ]},
    {"cell line": "EMC-BAC-2", "values": [
      {"measurement": "relative viability", "setting": "KN-93 + Bortezomib; first compound 0.08 µM", "value": 0.908},
      {"measurement": "relative viability", "setting": "KN-93 + Bortezomib; first compound 0.253 µM", "value": 1.12},
      {"measurement": "relative viability", "setting": "KN-93 + Bortezomib; first compound 2.53 µM", "value": 1.12},
      {"measurement": "relative viability", "setting": "KN-93 + Bortezomib; first compound 8 µM", "value": 0.58},
      {"measurement": "relative viability", "setting": "KN-93 + Phenformin; first compound 0.08 µM", "value": 0.501},
      {"measurement": "relative viability", "setting": "KN-93 + Phenformin; first compound 0.253 µM", "value": 0.596},
      {"measurement": "relative viability", "setting": "KN-93 + Phenformin; first compound 2.53 µM", "value": 0.548},
      {"measurement": "relative viability", "setting": "KN-93 + Phenformin; first compound 8 µM", "value": 0.458},
      {"measurement": "relative viability", "setting": "KN-93 + Pemetrexed; first compound 0.08 µM", "value": 0.452},
      {"measurement": "relative viability", "setting": "KN-93 + Pemetrexed; first compound 0.253 µM", "value": 0.484},
      {"measurement": "relative viability", "setting": "KN-93 + Pemetrexed; first compound 2.53 µM", "value": 0.497},
      {"measurement": "relative viability", "setting": "KN-93 + Pemetrexed; first compound 8 µM", "value": 0.437},
      {"measurement": "relative viability", "setting": "KN-93 + Linsitinib; first compound 0.08 µM", "value": 0.821},
      {"measurement": "relative viability", "setting": "KN-93 + Linsitinib; first compound 0.253 µM", "value": 1},
      {"measurement": "relative viability", "setting": "KN-93 + Linsitinib; first compound 2.53 µM", "value": 0.878},
      {"measurement": "relative viability", "setting": "KN-93 + Linsitinib; first compound 8 µM", "value": 0.775},
      {"measurement": "relative viability", "setting": "KN-93 + Tozasertib; first compound 0.08 µM", "value": 0.24},
      {"measurement": "relative viability", "setting": "KN-93 + Tozasertib; first compound 0.253 µM", "value": 0.276},
      {"measurement": "relative viability", "setting": "KN-93 + Tozasertib; first compound 2.53 µM", "value": 0.274},
      {"measurement": "relative viability", "setting": "KN-93 + Tozasertib; first compound 8 µM", "value": 0.274}
    ]},
    {"cell line": "A-427", "values": [
      {"measurement": "relative viability", "setting": "KN-93 + Bortezomib; first compound 0.08 µM", "value": 1.04},
      {"measurement": "relative viability", "setting": "KN-93 + Bortezomib; first compound 0.253 µM", "value": 0.99},
      {"measurement": "relative viability", "setting": "KN-93 + Bortezomib; first compound 2.53 µM", "value": 0.982},
      {"measurement": "relative viability", "setting": "KN-93 + Bortezomib; first compound 8 µM", "value": 0.852},
      {"measurement": "relative viability", "setting": "KN-93 + Phenformin; first compound 0.08 µM", "value": 0.322},
      {"measurement": "relative viability", "setting": "KN-93 + Phenformin; first compound 0.253 µM", "value": 0.35},
      {"measurement": "relative viability", "setting": "KN-93 + Phenformin; first compound 2.53 µM", "value": 0.278},
      {"measurement": "relative viability", "setting": "KN-93 + Phenformin; first compound 8 µM", "value": 0.229},
      {"measurement": "relative viability", "setting": "KN-93 + Pemetrexed; first compound 0.08 µM", "value": 1.05},
      {"measurement": "relative viability", "setting": "KN-93 + Pemetrexed; first compound 0.253 µM", "value": 1.01},
      {"measurement": "relative viability", "setting": "KN-93 + Pemetrexed; first compound 2.53 µM", "value": 0.941},
      {"measurement": "relative viability", "setting": "KN-93 + Pemetrexed; first compound 8 µM", "value": 0.776},
      {"measurement": "relative viability", "setting": "KN-93 + Linsitinib; first compound 0.08 µM", "value": 1.1},
      {"measurement": "relative viability", "setting": "KN-93 + Linsitinib; first compound 0.253 µM", "value": 1.2},
      {"measurement": "relative viability", "setting": "KN-93 + Linsitinib; first compound 2.53 µM", "value": 1.13},
      {"measurement": "relative viability", "setting": "KN-93 + Linsitinib; first compound 8 µM", "value": 0.965},
      {"measurement": "relative viability", "setting": "KN-93 + Tozasertib; first compound 0.08 µM", "value": 0.206},
      {"measurement": "relative viability", "setting": "KN-93 + Tozasertib; first compound 0.253 µM", "value": 0.193},
      {"measurement": "relative viability", "setting": "KN-93 + Tozasertib; first compound 2.53 µM", "value": 0.172},
      {"measurement": "relative viability", "setting": "KN-93 + Tozasertib; first compound 8 µM", "value": 0.165}
    ]}
  ]
}
